Key:
Assay in all cases: relative viability (nuclei count vs DMSO), 5 days (fraction); higher = more cells survive
[1] = compound: C=CCNC1=C2C[C@@H](C)C[C@H](OC)[C@H](O)[C@@H](C)/C=C(\C)[C@H](OC(N)=O)[C@@H](OC)/C=C\C=C(/C)C(=O)NC(=CC1=O)C2=O [17-AAG] + O=C(c1cc(Cc2n[nH]c(=O)c3ccccc23)ccc1F)N1CCN(C(=O)C2CC2)CC1 [Olaparib] (partner 8 µM)
Procedure, shortened: (§1)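 Lung cancer cell lines in 1536-well plates were dosed by pin tool the day after seeding, either with one drug alone or with a fixed anchor-drug dose plus five library-drug doses (not always all listed) in √10 steps. After 5 days, cells were fixed and their nuclei stained in one step (final 0.05% Triton X-100, 1% formaldehyde, 1 ug/ml Hoechst), then counted on 4× images. Relative viability is the nuclei count in treated wells divided by that in vehicle wells. Values are medians of duplicate plates.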

[2] = compound: C=CCNC1=C2C[C@@H](C)C[C@H](OC)[C@H](O)[C@@H](C)/C=C(\C)[C@H](OC(N)=O)[C@@H](OC)/C=C\C=C(/C)C(=O)NC(=CC1=O)C2=O [17-AAG] + O=C(CCCCCCC(=O)Nc1ccccc1)NO [Vorinostat] (partner 1 µM)
Procedure, shortened: as §1

[3] = compound: C=CCNC1=C2C[C@@H](C)C[C@H](OC)[C@H](O)[C@@H](C)/C=C(\C)[C@H](OC(N)=O)[C@@H](OC)/C=C\C=C(/C)C(=O)NC(=CC1=O)C2=O [17-AAG] + Nc1nc2[nH]cc(CCc3ccc(C(=O)N[C@@H](CCC(=O)O)C(=O)O)cc3)c2c(=O)[nH]1 [Pemetrexed] (partner 0.2 µM)
Procedure, shortened: as §1

[4] = compound: C=CCNC1=C2C[C@@H](C)C[C@H](OC)[C@H](O)[C@@H](C)/C=C(\C)[C@H](OC(N)=O)[C@@H](OC)/C=C\C=C(/C)C(=O)NC(=CC1=O)C2=O [17-AAG] + C[C@]1(O)C[C@@H](c2nc(-c3ccc4ccc(-c5ccccc5)nc4c3)c3c(N)nccn32)C1 [Linsitinib] (partner 1 µM)
Procedure, shortened: as §1

Row | Cell Line | relative viability ([1]; first compound 0.00128 µM) | relative viability ([1]; first compound 0.004048 µM) | relative viability ([1]; first compound 0.0128 µM) | relative viability ([1]; first compound 0.04048 µM) | relative viability ([1]; first compound 0.128 µM) | relative viability ([2]; first compound 0.00128 µM) | relative viability ([2]; first compound 0.004048 µM) | relative viability ([2]; first compound 0.0128 µM) | relative viability ([2]; first compound 0.04048 µM) | relative viability ([2]; first compound 0.128 µM) | relative viability ([3]; first compound 0.00128 µM) | relative viability ([3]; first compound 0.004048 µM) | relative viability ([3]; first compound 0.0128 µM) | relative viability ([3]; first compound 0.04048 µM) | relative viability ([3]; first compound 0.128 µM) | relative viability ([4]; first compound 0.00128 µM) | relative viability ([4]; first compound 0.004048 µM) | relative viability ([4]; first compound 0.0128 µM) | relative viability ([4]; first compound 0.04048 µM) | relative viability ([4]; first compound 0.128 µM)
1 | COR-L23 | 0.377 | 0.322 | 0.324 | 0.169 | 0.112 | 0.489 | 0.408 | 0.47 | 0.319 | 0.109 | 0.2 | 0.2 | 0.211 | 0.225 | 0.157 | 0.919 | 0.952 | 0.943 | 0.473 | 0.138
2 | COR-L 105 | 0.601 | 0.71 | 0.778 | 0.55 | 0.515 | 0.876 | 0.983 | 0.783 | 0.728 | 0.439 | 1.17 | 1.32 | 1.02 | 0.968 | 0.687 | 0.834 | 0.895 | 1 | 0.644 | 0.666
3 | EKVX | 0.826 | 0.762 | 0.775 | 0.175 | 0.126 | 0.783 | 0.802 | 0.719 | 0.423 | 0.567 | 0.475 | 0.381 | 0.491 | 0.17 | 0.131 | 1.12 | 1.08 | 0.873 | 0.252 | 0.122
4 | EMC-BAC-2 | 0.533 | 0.516 | 0.316 | 0.334 | 0.273 | 0.609 | 0.506 | 0.387 | 0.199 | 0.357 | 0.504 | 0.536 | 0.548 | 0.448 | 0.383 | 0.875 | 0.772 | 0.837 | 0.803 | 0.265
5 | EPLC-272H | 0.721 | 0.662 | 0.195 | 0.0777 | 0.0732 | 0.398 | 0.426 | 0.109 | 0.115 | 0.0985 | 0.404 | 0.365 | 0.166 | 0.145 | 0.0977 | 1.37 | 1.12 | 1.21 | 0.928 | 0.324
6 | H3255 | 0.556 | 0.494 | 0.484 | 0.284 | 0.231 | 0.898 | 0.864 | 0.82 | 0.282 | 0.292 | 0.578 | 0.6 | 0.531 | 0.287 | 0.267 | 0.953 | 1.01 | 0.798 | 0.201 | 0.188
7 | HARA | 0.891 | 0.78 | 1.02 | 1.18 | 0.18 | 0.485 | 0.586 | 0.517 | 0.396 | 0.097 | 0.256 | 0.257 | 0.29 | 0.198 | 0.147 | 0.947 | 1.01 | 0.909 | 0.442 | 0.754
8 | HCC-15 | 0.726 | 0.71 | 0.306 | 0.332 | 0.15 | 0.892 | 0.995 | 0.641 | 0.407 | 0.263 | 0.23 | 0.236 | 0.216 | 0.144 | 0.138 | 0.879 | 0.894 | 0.613 | 0.387 | 0.213
9 | HCC-44 | 0.976 | 0.989 | 1 | 0.997 | 0.492 | 1.17 | 1.13 | 1.19 | 1.09 | 0.917 | 0.639 | 0.619 | 0.649 | 0.694 | 0.352 | 0.643 | 0.709 | 0.686 | 0.662 | 0.119
10 | HCC-78 | 0.806 | 0.832 | 1.07 | 0.681 | 0.308 | 0.441 | 0.42 | 0.47 | 0.689 | 0.413 | 0.902 | 0.926 | 0.919 | 0.879 | 0.836 | 0.626 | – | 0.608 | 0.62 | 0.294
11 | HCC-366 | 0.414 | 0.357 | 0.0266 | 0.0306 | 0.0265 | 0.305 | 0.374 | 0.149 | 0.0397 | 0.0268 | 0.207 | 0.311 | 0.127 | 0.0359 | 0.0398 | 0.52 | 0.659 | 0.0425 | 0.0221 | 0.0229
12 | HCC-827 | 0.698 | 0.755 | 0.769 | – | 0.331 | 0.963 | 0.864 | 0.833 | – | 0.863 | 0.283 | 0.264 | 0.257 | – | 0.218 | 0.902 | 0.958 | 0.946 | – | 0.855
13 | HOP-62 | 0.445 | 0.411 | 0.22 | 0.171 | 0.0948 | 0.687 | 0.563 | 0.452 | 0.141 | 0.083 | 0.409 | 0.314 | 0.271 | 0.127 | 0.109 | 0.783 | 0.917 | 1.08 | 0.819 | 0.455
14 | LC-2-ad | 0.751 | 0.728 | 0.643 | 0.475 | 0.225 | 0.701 | 0.719 | 0.732 | 0.318 | 0.182 | 0.298 | 0.257 | 0.248 | 0.219 | 0.209 | 0.861 | 0.883 | 0.857 | 0.362 | 0.136
15 | LCLC-97TM1 | 0.423 | 0.359 | 0.406 | 0.302 | 0.255 | 0.848 | 0.668 | 0.634 | 0.44 | 0.0747 | 0.188 | 0.204 | 0.186 | 0.206 | 0.116 | 0.192 | 0.198 | 0.211 | 0.269 | 0.182
